{"source": "patent US6562874B1", "about": "“Compositions comprising combination of DEFI and modified DEFI and methods of making” (Unilever Home & Personal Care USA division of Conopco, Inc., priority 1999, dated 2003)", "key": {"[1]": {"experiment": "Foaming protocol for Examples 26-36, 250 mL graduated cylinder", "format": "physicochemical", "settings": "Table 5, 1 g in 20 mL water, 250 mL cylinder, shaken 60 seconds", "method": "Protocol for Examples 26-36\nOne gram of final active mix is placed in a 250 mL glass-stoppered graduated cylinder and dispersed in 20 mL of distilled, de-ionized water; it is heated to 45° C. in a water bath until the temperature of the dispersion is at equilibrium. (note: For measurements done at 20° C., the water bath is set to 20° C. and the same procedure is followed). The sealed cylinder is then shaken vigorously for 60 seconds after which time the foam volume is measured in mL and recorded."}, "zein protein": {"test_system": "zein protein", "experiment": "Mildness (Zein solubilization), standard Zein assay", "settings": "Table 5; 1% aqueous solution, 1.5 g zein, one hour", "description": "Mildness (Zein Solubilization)\nThis test is based on the correlation noted between the amount of zein solubilized by an aqueous surfactant solution and its irritancy; the more zein a surfactant dissolves, the greater its intrinsic irritation potential. The procedure is conducted gravimetrically: a 1% aqueous solution of surfactant mixture is added to 1.5 g of zein protein and this mixture is allowed to stir at a constant rate for one hour. This mixture is then centrifuged (for approximately 25 minutes at 4000 rpm) and the undissolved zein is isolated, rinsed and allowed to dry in a vacuum over at 60° C. to constant weight. The zein solubilized is determined by difference."}, "[2]": {"experiment": "Foaming measurement protocol (Examples 1-25), 100 mL graduated cylinder", "format": "physicochemical", "settings": "1 g active mix in 20 mL water, 45° C., shaken 60 seconds, 100 mL cylinder", "method": "Foaming Measurement Protocol (Examples 1-25)\nOne gram of final active mix is placed in a 100 mL glass stoppered graduated cylinder and dispersed in 20 mL of distilled de-ionized water; it is heated to 45° C. in a water bath until the temperature of the dispersion is at equilibrium. The sealed cylinder is then shaken vigorously for 60 seconds after which time the foam volume is measured in mL and recorded."}}}
{"substance": "Coco N-Methyl Taurate", "values": [{"measurement": "Foam at 20° C.", "setting": "[1]; 20° C.", "value": 122, "unit": "mL"}, {"measurement": "Foam at 45° C.", "setting": "[1]; 45° C.", "value": 135, "unit": "mL"}, {"measurement": "Zein", "setting": "zein protein", "value": 50.0, "unit": "%"}]}
{"substance": "sodium lauroyl isethionate [SLI - Control]", "values": [{"measurement": "Foam Vol.", "setting": "[2]; Table 1", "value": 89.5, "unit": "mL"}, {"measurement": "Foam Vol.", "setting": "[2]; Table 2", "value": 95, "unit": "mL"}]}
